Values joined by “and” are separate entries in the source; they are usually repeats but may differ in a detail not shown here. Identical values can stand only once. Like-named read-outs stand apart in the source and are kept apart here. Where a SMILES comes first, the peptide text is derived from it. [ ]: non-standard residue; d: D form. The star is where a group is joined. Propanoyl(3-cHex) = O=C(CCC1CCCCC1)*; Dap = NC[C@H](N)C(=O)O
Key:
NMU2 [1] = target: T1, NMU2 (Homo sapiens, UniProt Q9GZQ4); experiment: TRUPATH Gαi1βγ biosensor assay, WT NMU2; format: cell-based; settings: WT; for CPN 116–induced G protein activation of NMU2: single replicates, in % (unit assumed)
T1 construct: HA signal peptide (N); expressed in transfected cells; host or cells: HEK 293F
T1 sequence (Q9GZQ4 whole entry): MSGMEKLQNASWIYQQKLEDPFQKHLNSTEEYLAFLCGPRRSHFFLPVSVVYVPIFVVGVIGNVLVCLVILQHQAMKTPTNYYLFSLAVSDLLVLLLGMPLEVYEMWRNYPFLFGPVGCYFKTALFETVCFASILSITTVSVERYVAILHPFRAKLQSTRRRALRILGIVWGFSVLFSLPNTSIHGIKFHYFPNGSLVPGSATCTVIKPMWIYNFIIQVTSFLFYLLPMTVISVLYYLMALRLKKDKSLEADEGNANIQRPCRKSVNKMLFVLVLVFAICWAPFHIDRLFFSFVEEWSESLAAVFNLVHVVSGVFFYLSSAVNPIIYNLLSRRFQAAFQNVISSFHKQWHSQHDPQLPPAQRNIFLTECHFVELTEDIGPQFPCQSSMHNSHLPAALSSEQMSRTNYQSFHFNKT
Procedure: (§1) The plasmids of Gαi1, Gβ3, and Gγ9 used for the TRUPATH assay were purchased from Addgene (TRUPATH Kit, #1000000163). NMU2 constructs of WT and mutants were constructed into a PTT5 vector (Invitrogen) with an N-terminal HA signal peptide followed by a Flag tag. HEK 293F cells were transiently transfected with WT or mutants of NMU2, Gαi1, Gβ3, and Gγ9 at an […] ratio of 4:1:1:1 with a total of 3500 ng plasmid DNA using a transfection reagent (PEI MAX 2000, Polysciences) and cultivated at 37 °C with 5 % CO2. Cells were collected after 48-h transfection. The expression level of the receptor was measured by incubating 10 μl cells with 15 μl TBS buffer supplemented with 4% bovine serum albumin, 20% (v/v) viability staining solution7-AAD (Invitrogen, Cat#00-6993-50), and ANTI-FLAG M2-FITC antibody (Sigma, F4049; 1:100 diluted by TBS) at 4 °C for 20 min. After incubation, 175 μl TBS buffer was added, and the fluorescence signal on the cell surface was detected by an FCM (flow cytometry) reader (Millipore). The cells were diluted with 1× HBSS (Hank’s balanced salt solution) balanced buffer supplemented with 25 mM HEPES, pH 7.4, and seeded onto the 96-well opaque cell culture plates (Beyotime) at a density of 18,000 cells per well by 60 μl. Freshly prepared 50 μM coelenterazine 400a (Nanolight Technologies) was added into the well by 10 μl. After a 5 min equilibration time in the darkness, plates were then read in a Synerg^TM H1 microplate reader (BioTek) with excitation at 395 nm and emission at 410 and 515 nm by serially three times. Then, 30 μl of 3.3× agonists were added into the wells with a gradient final concentration from 10^−4–10^−13 M. Plates were read immediately again by serially five times. Data were processed and analyzed following the method in the literature by using GraphPad Prism 8.0.

NMU2 H43E = target: T2, NMU2 H43E (Homo sapiens, UniProt Q9GZQ4, H43E); experiment: TRUPATH assay, NMU2 mutant H43E; format: cell-based; settings: H43E
T2 construct: HA signal peptide (N); expressed in transfected cells; host or cells: HEK 293F
T2 sequence (Q9GZQ4 whole entry H43E): as the sequence (Q9GZQ4 whole entry) above, with H43E counted along it
Procedure: as §1

NMU2 H43W = target: T3, NMU2 H43W (Homo sapiens, UniProt Q9GZQ4, H43W); experiment: TRUPATH assay, NMU2 mutant H43W; format: cell-based
T3 construct: HA signal peptide (N); expressed in transfected cells; host or cells: HEK 293F
T3 sequence (Q9GZQ4 whole entry H43W): as the sequence (Q9GZQ4 whole entry) above, with H43W counted along it
Procedure: as §1

NMU2 A302H = target: T4, NMU2 A302H (Homo sapiens, UniProt Q9GZQ4, A302H); experiment: TRUPATH assay, NMU2 mutant A302H; format: cell-based
T4 construct: HA signal peptide (N); expressed in transfected cells; host or cells: HEK 293F
T4 sequence (Q9GZQ4 whole entry A302H): as the sequence (Q9GZQ4 whole entry) above, with A302H counted along it
Procedure: as §1

NMU2 N306Q = target: T5, NMU2 N306Q (Homo sapiens, UniProt Q9GZQ4, N306Q); experiment: TRUPATH assay, NMU2 mutant N306Q; format: cell-based
T5 construct: HA signal peptide (N); expressed in transfected cells; host or cells: HEK 293F
T5 sequence (Q9GZQ4 whole entry N306Q): as the sequence (Q9GZQ4 whole entry) above, with N306Q counted along it
Procedure: as §1

NMU2 N306W = target: T6, NMU2 N306W (Homo sapiens, UniProt Q9GZQ4, N306W); experiment: TRUPATH assay, NMU2 mutant N306W; format: cell-based
T6 construct: HA signal peptide (N); expressed in transfected cells; host or cells: HEK 293F
T6 sequence (Q9GZQ4 whole entry N306W): as the sequence (Q9GZQ4 whole entry) above, with N306W counted along it
Procedure: as §1

NMU2 [2] = target: T1, NMU2; set-up: method as in PMID 24999562, PMID 25815150, PMID 28548497; settings: potency for NMU2; cited from earlier work
NMU1 = tested on: NMU1; set-up: method as in PMID 24999562, PMID 25815150, PMID 28548497; settings: cited from earlier work
[3] = read-out: pEC50 mean±SEM (converted)
[4] = earlier manuscript version, peer review file

CC(C)C[C@H](NC(=O)CCC1CCCCC1)C(=O)N[C@@H](CC(C)C)C(=O)N[C@@H](CN)C(=O)N1CCC[C@H]1C(=O)N[C@@H](CCCNC(=N)N)C(=O)N[C@@H](CC(N)=O)C(N)=O [CPN 116] ({Propanoyl(3-cHex)}-LL[Dap]PRN-NH2; N-terminus assumed)
EC50 ratio EC50(mutant)/EC50(WT) (NMU2 [1]): 1
Span (window between Emax and minimal agonist response) (NMU2 [1]): 100±5 % of WT
CPN 116–induced G protein activation of NMU2 (NMU2 [1]; Log [CPN 116] M -4): 124.271 and 109.389 and 104.836 and 98.7874 and 114.415 and 92.1354 and 98.8516 and 96.9846 and 129.092
CPN 116–induced G protein activation of NMU2 (NMU2 [1]; Log [CPN 116] M -5): 81.0668 and 90.6105 and 83.9029 and 70.7281 and 97.1643 and 105.033 and 97.1976 and 102.389 and 91.9125
CPN 116–induced G protein activation of NMU2 (NMU2 [1]; Log [CPN 116] M -6): 123.537 and 69.0158 and 98.755 and 109.275 and 101.527 and 90.1601 and 88.5457 and 99.457 and 76.0968 and 66.3324
CPN 116–induced G protein activation of NMU2 (NMU2 [1]; Log [CPN 116] M -7): 58.8924 and 38.0271 and 51.0097 and 20.9117 and 20.6245 and 99.7769 and 42.6311 and 75.7485 and 28.5134 and 61.3823
CPN 116–induced G protein activation of NMU2 (NMU2 [1]; Log [CPN 116] M -8): 61.8786 and 27.1582 and 20.07 and 29.5038 and 13.1206 and 29.1828 and -9.383 and 21.3054 and 11.8363 and 17.7072
CPN 116–induced G protein activation of NMU2 (NMU2 [1]; Log [CPN 116] M -9): 19.9062 and -6.919 and 9.364 and -2.803 and 20.3603 and -10.3226 and 21.8665 and -7.72 and -11.2532 and 17.6747
CPN 116–induced G protein activation of NMU2 (NMU2 [1]; Log [CPN 116] M -10): 41.8708 and 6.201 and -13.4099 and 3.958 and 1.871 and 13.514 and 0.4422 and 6.532 and 9.793 and -10.7717
CPN 116–induced G protein activation of NMU2 (NMU2 [1]; Log [CPN 116] M -11): -45.0449 and -20.5889 and -0.1978 and -15.7237 and -24.3777 and 3.048 and -8.327 and 4.148 and -6.043 and -10.0645
EC50 (NMU2 [1]; agonist-induced G protein activation, HEK 293F, read-out: EC50): 0.088 µM
EC50 (NMU2 [1]; [3]): 0.0891 µM
EC50 ratio EC50(mutant)/EC50(WT) (NMU2 H43E): 34 and ~30
Span (window between Emax and minimal agonist response) (NMU2 H43E): 68±10 % of WT
G protein activation (TRUPATH), dose-response point (NMU2 H43E; Log [agonist] M -4): 54.8659 and 69.4702 and 83.0554
reduction of potency (NMU2 H43E; [4]): about 40 fold
EC50 (NMU2 H43E; read-out: EC50): 3.01 µM
EC50 (NMU2 H43E; [3]): 3.02 µM
EC50 ratio EC50(mutant)/EC50(WT) (NMU2 H43W): 4
Span (window between Emax and minimal agonist response) (NMU2 H43W): 113±8 % of WT
G protein activation (TRUPATH), dose-response point (NMU2 H43W; Log [agonist] M -4): 70.3208 and 118.253 and 100.643 and 93.456
G protein activation (TRUPATH), dose-response point (NMU2 H43W; Log [agonist] M -5): 117.081 and 116.835 and 123.722 and 102.53
EC50 (NMU2 H43W; read-out: EC50): 0.328 µM
EC50 (NMU2 H43W; [3]): 0.331 µM
EC50 ratio EC50(mutant)/EC50(WT) (NMU2 A302H): 10
Span (window between Emax and minimal agonist response) (NMU2 A302H): 57±12 % of WT
EC50 (NMU2 A302H; read-out: EC50): 0.89 µM
EC50 (NMU2 A302H; [3]): 0.891 µM
EC50 ratio EC50(mutant)/EC50(WT) (NMU2 N306Q): 34 and ~30
Span (window between Emax and minimal agonist response) (NMU2 N306Q): 103±8 % of WT
G protein activation (TRUPATH), dose-response point (NMU2 N306Q; Log [agonist] M -4): 92.4083 and 98.1528 and 132.361 and 88.4481
G protein activation (TRUPATH), dose-response point (NMU2 N306Q; Log [agonist] M -5): 86.2104 and 99.9961 and 102.907 and 71.1922
reduction of potency (NMU2 N306Q; [4]): about 40 fold
EC50 (NMU2 N306Q; read-out: EC50): 3.03 µM
EC50 (NMU2 N306Q; [3]): 3.02 µM
CPN 116–induced G protein activation of NMU2 (NMU2 N306W; Log [CPN 116] M -4, single replicates): -39.3918 and -40.1037 and -18.108
CPN 116–induced G protein activation of NMU2 (NMU2 N306W; Log [CPN 116] M -5, single replicates): -35.463 and -12.1167 and -20.5536
CPN 116–induced G protein activation of NMU2 (NMU2 N306W; Log [CPN 116] M -6, single replicates): -13.9347 and -29.6651
CPN 116–induced G protein activation of NMU2 (NMU2 N306W; Log [CPN 116] M -7, single replicates): -42.0373 and -15.8433 and -22.9653
CPN 116–induced G protein activation of NMU2 (NMU2 N306W; Log [CPN 116] M -8, single replicates): -43.5336 and -18.6278
CPN 116–induced G protein activation of NMU2 (NMU2 N306W; Log [CPN 116] M -9, single replicates): -58.7333 and -19.6009 and -22.809
CPN 116–induced G protein activation of NMU2 (NMU2 N306W; Log [CPN 116] M -10, single replicates): -49.0206 and -44.7808 and -17.6453
CPN 116–induced G protein activation of NMU2 (NMU2 N306W; Log [CPN 116] M -11, single replicates): -6.043 and -10.0645 and -20.5889
EC50 (NMU2 [2]): 0.0066 µM
activation of NMU1 (NMU1): without obvious activation of NMU1

From paper PMC9794833, “Ligand recognition and activation of neuromedin U receptor 2” (Nature Communications, 2022)
